Like-named read-outs stand apart in the source and are kept apart here. Where a SMILES comes first, the peptide text is derived from it. Bridges are numbered along the chain shown (N, C = ends). [ ]: non-standard residue; d: D form. The star is where a group is joined. hPhe(3-Cl-4-CF3) = N[C@@H](CCc1ccc(C(F)(F)F)c(Cl)c1)C(=O)O; NPrPhe(4-CF3) = CCCN[C@@H](Cc1ccc(C(F)(F)F)cc1)C(=O)O; NMeGly(cPent) = CN[C@H](C(=O)O)C1CCCC1; NMeD = CN[C@@H](CC(=O)O)C(=O)O; NMeL = CN[C@@H](CC(C)C)C(=O)O; Morpholide = C1CN(*)CCO1; NMeA = CN[C@@H](C)C(=O)O; Ac5c = NC1(C(=O)O)CCCC1; Aze = O=C(O)[C@@H]1CCN1; Abu = CC[C@H](N)C(=O)O; Sar = CNCC(=O)O
How the values were obtained:
[1] = target: GDP-bound NRAS wild-type protein (Homo sapiens, UniProt P01111); assay: Binding to NRAS by surface plasmon resonance (SPR), Single Cycle Kinetics; settings: for NRAS/KRAS (ratio of KD value for NRAS to KD value for KRAS) / NRAS/KRAS (ratio of KD value with respect to NRAS to KD value with respect to KRAS): SPR, GDP-bound NRAS wild-type protein vs GDP-bound KRAS wild-type protein; for NRAS/KRAS (ratio of KD value with respect to GDP-bound NRAS wild-type protein to KD value with respect to KRAS): SPR KD ratio NRAS/KRAS, class symbols
Sequence of GDP-bound NRAS wild-type protein (P01111 whole entry): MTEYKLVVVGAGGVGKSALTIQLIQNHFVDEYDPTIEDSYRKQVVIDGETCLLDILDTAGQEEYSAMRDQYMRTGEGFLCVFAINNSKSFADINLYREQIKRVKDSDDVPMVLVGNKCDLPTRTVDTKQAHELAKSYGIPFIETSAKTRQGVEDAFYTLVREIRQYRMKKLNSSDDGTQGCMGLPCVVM

[2] = target: GDP-bound HRAS wild-type protein (Homo sapiens, UniProt P01112); assay: Binding to HRAS by surface plasmon resonance (SPR), Single Cycle Kinetics; settings: for HRAS/KRAS (ratio of KD value for HRAS to KD value for KRAS) / HRAS/KRAS (ratio of KD value with respect to HRAS to KD value with respect to KRAS): SPR, GDP-bound HRAS wild-type protein vs GDP-bound KRAS wild-type protein; for HRAS/KRAS (ratio of KD value with respect to GDP-bound HRAS wild-type protein to KD value with respect to KRAS): SPR KD ratio HRAS/KRAS, class symbols
Sequence of GDP-bound HRAS wild-type protein (P01112 whole entry): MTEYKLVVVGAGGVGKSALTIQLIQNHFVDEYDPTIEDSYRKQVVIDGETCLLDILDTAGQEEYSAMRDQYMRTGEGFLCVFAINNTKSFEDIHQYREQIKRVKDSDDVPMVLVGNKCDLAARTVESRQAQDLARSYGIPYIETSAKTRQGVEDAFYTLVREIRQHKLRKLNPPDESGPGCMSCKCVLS

[3] = target: GDP-bound KRAS wild-type protein (Homo sapiens, UniProt P01116); assay: Binding to KRAS by surface plasmon resonance (SPR), Single Cycle Kinetics; settings: GDP-bound KRAS wild-type protein, read-out: KRAS KD
Sequence of GDP-bound KRAS wild-type protein (P01116 whole entry): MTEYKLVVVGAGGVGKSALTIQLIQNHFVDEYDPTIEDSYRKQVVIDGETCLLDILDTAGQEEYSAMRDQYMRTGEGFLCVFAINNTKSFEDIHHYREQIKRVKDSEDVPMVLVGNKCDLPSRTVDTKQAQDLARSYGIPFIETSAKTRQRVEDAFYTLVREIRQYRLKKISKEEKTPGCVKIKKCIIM

[4] = SPR Single Cycle Kinetics, 1:1 binding model

Row | SMILES | NRAS/KRAS (ratio of KD value for NRAS to KD value for KRAS) [1] | HRAS/KRAS (ratio of KD value for HRAS to KD value for KRAS) [2] | Kd ([3]; SPR, Single Cycle Kinetics) [nM] | Kd [3, 4] [nM] | further results
1 | CCO[C@@H]1C[C@H]2C(=O)NC3(CCC3)C(=O)N(C)[C@@H](C(CC)CC)C(=O)N(C)[C@H](C(=O)N3CCOCC3)CC(=O)N(C)[C@@H](CC(C)C)C(=O)N[C@@H]([C@@H](C)CC)C(=O)N(C)CC(=O)N(C)[C@H]3CCCCN(C3=O)[C@@H](Cc3ccc(C(F)(F)F)cc3)C(=O)N(C)CC(=O)N[C@@H](CCc3cc(F)c(C(F)(F)F)c(F)c3)C(=O)N2C1 [PP0811] | B (a compound having 3 or more and less than 10 is denoted as B) | B (a compound having 3 or more and less than 10 is denoted as B) | 0.083 |  | 
2 | CCCOC[C@H]1C(=O)N[C@@H]([C@@H](C)CC)C(=O)N(C)CC(=O)N(C)[C@H]2C/C=C\CCN(C2=O)[C@@H](Cc2ccc(C)cc2)C(=O)N(C)CC(=O)N[C@@H](CCc2cc(F)c(C(F)(F)F)c(F)c2)C(=O)N2C[C@H](CCC)C[C@H]2C(=O)NC2(CCCC2)C(=O)N(C)[C@@H](C2CCCC2)C(=O)N(C)[C@H](C(=O)N(C)C)CC(=O)N1C [PP2229] | A (a compound having 10 or more and less than 20 is denoted as A) | A (a compound having 10 or more and less than 20 is denoted as A) | 0.38 |  | 
3 | CCCN(C)C(=O)[C@@H]1CC(=O)N(C)[C@@H](C2CCC2)C(=O)N[C@@H]([C@@H](C)CC)C(=O)N(C)CC(=O)N(C)[C@H]2C/C=C\CCN(C2=O)[C@@H](Cc2ccc(C(F)(F)F)cc2)C(=O)N(C)CC(=O)N[C@@H](CCc2cc(F)c(C(F)(F)F)c(F)c2)C(=O)N2C[C@@H](C)C[C@H]2C(=O)NC2(CCC2)C(=O)N(C)[C@@H](C2CCCC2)C(=O)N1C [PP2083] | A (a compound having 10 or more and less than 20 is denoted as A) | B (a compound having 3 or more and less than 10 is denoted as B) | 0.22 |  | 
4 | CCC[C@H]1C(=O)N[C@@H]([C@@H](C)CC)C(=O)N2CCC[C@H]2C(=O)N(C)[C@H]2C/C=C\CCN(C2=O)[C@@H](Cc2ccc(C(F)(F)F)cc2)C(=O)N(C)CC(=O)N[C@@H](CCc2ccc(C(F)(F)F)c(OC)c2)C(=O)N2C[C@H](OCC)C[C@H]2C(=O)N(C)C2(CCC2)C(=O)N(C)[C@@H](C2CCCC2)C(=O)N(C)[C@H](C(=O)N(C)C)CC(=O)N1C [PP2320, (1S,4S,10S,13S,17S,20S,26S,28R,32S,38S,42Z)-20-cyclopentyl-28-ethoxy-32-[2-[3-methoxy-4-(trifluoromethyl)phenyl]ethyl]-N,N,2,14,18,21,24,36-octamethyl-10-[(1S)-1-methylpropyl]-3,9,12,15,19,22,25,31,34,37,45-undecaoxo-13-propyl-38-[[4-(trifluoromethyl)phenyl]methyl]spiro[2,8,11,14,18,21,24,30,33,36,39-undecazatetracyclo[37.5.1.0^4,8.0^26,30]pentatetracont-42-ene-23,1′-cyclobutane]-17-carboxamide] | A (a compound having 10 or more and less than 20 is denoted as A) | A (a compound having 10 or more and less than 20 is denoted as A) | 0.11 |  | 
5 | CCCN1C(=O)[C@@H]2CCN2C(=O)[C@H](C)N(C)C(=O)[C@H](CC)NC(=O)[C@H](CC(C)C)N(C)C(=O)C[C@@H](C(=O)N2CCOCC2)N(C)C(=O)[C@H](C2CCCC2)N(C)C(=O)C2(CCCC2)NC(=O)[C@@H]2CCCN2C(=O)[C@H](CCc2ccc(C(F)(F)F)c(Cl)c2)NC(=O)CN(C)C(=O)[C@@H]1Cc1ccc(C(F)(F)F)cc1 [PP0269] ([NMeL][Abu][NMeA][Aze][NPrPhe(4-CF3)][Sar][hPhe(3-Cl-4-CF3)]P[Ac5c][NMeGly(cPent)][NMeD]-Morpholide; lactam N-11) | C (A compound having a KD ratio of 0.1 or more and less than 3 is denoted as C) | B (a compound having 3 or more and less than 10 is denoted as B) |  | 1.4 | 
6 | CCO[C@@H]1C[C@H]2C(=O)NC3(CCC3)C(=O)N(C)[C@@H](C3CCCC3)C(=O)N(C)[C@H](C(=O)N(C)C)CC(=O)N(C)[C@@H](CC)C(=O)N[C@@H]([C@@H](C)CC)C(=O)N(C)CC(=O)N(C)[C@H]3CC(C)=CCN(C3=O)[C@@H](Cc3ccc(C(F)(F)F)cc3)C(=O)N(C)CC(=O)N[C@@H](CCc3cc(F)c(C(F)(F)F)c(F)c3)C(=O)N2C1 [PP1034] | C (A compound having a KD ratio of 0.1 or more and less than 3 is denoted as C) | C (A compound having a KD ratio of 0.1 or more and less than 3 is denoted as C) | 0.43 |  | 
7 | CCC[C@H]1C(=O)N[C@@H]([C@@H](C)CC)C(=O)N(C)CC(=O)N(C)[C@H]2C/C=C\CCN(C2=O)[C@@H](Cc2ccc(C(F)(F)F)cc2)C(=O)N(C)CC(=O)N[C@@H](CCc2ccc(CC)c(Cl)c2)C(=O)N2C[C@H](OCC)C[C@H]2C(=O)NC2(CC(C)(C)C2)C(=O)N(C)[C@@H](C(CC)CC)C(=O)N(C)[C@H](C(=O)N(C)C)CC(=O)N1C [PP2777] |  |  |  | 2.4 | NRAS/KRAS (ratio of KD value with respect to GDP-bound NRAS wild-type protein to KD value with respect to KRAS) [1]: AA (a compound having 20 or more is denoted as AA); HRAS/KRAS (ratio of KD value with respect to GDP-bound HRAS wild-type protein to KD value with respect to KRAS) [2]: A (a compound having 10 or more and less than 20 is denoted as A)
8 | C#CC[C@H]1C(=O)N[C@@H]([C@@H](C)CC)C(=O)N(C)CC(=O)N(C)[C@H]2C/C=C\CCN(C2=O)[C@@H](Cc2ccc(C(F)(F)F)cc2)C(=O)N(C)CC(=O)N[C@@H](CCc2ccc(C(F)(F)F)c(OC)c2)C(=O)N2CC[C@H]2C(=O)NC2(CC(C)(C)C2)C(=O)N(C)[C@@H](C2CCCC2)C(=O)N(C)[C@H](C(=O)N(C)C)CC(=O)N1C [PP2909] |  |  |  | 1 | NRAS/KRAS (ratio of KD value with respect to GDP-bound NRAS wild-type protein to KD value with respect to KRAS) [1]: B (a compound having 3 or more and less than 10 is denoted as B); HRAS/KRAS (ratio of KD value with respect to GDP-bound HRAS wild-type protein to KD value with respect to KRAS) [2]: B (a compound having 3 or more and less than 10 is denoted as B)
9 | CC[C@H](C)[C@@H]1NC(=O)[C@@H]2CCCCCN2C(=O)C[C@@H](C(=O)N2CCOCC2)N(C)C(=O)[C@H](C2CCCC2)N(C)C(=O)C2(CCCC2)NC(=O)[C@@H]2CCCN2C(=O)[C@H](CCc2cc(F)c(C(F)(F)F)c(F)c2)NC(=O)CN(C)C(=O)[C@H](Cc2ccc(C(F)(F)F)cc2)N2CCCCC[C@@H](C2=O)N(C)C(=O)CN(C)C1=O [PP0521] |  |  |  | 72 | NRAS/KRAS (ratio of KD value with respect to NRAS to KD value with respect to KRAS) [1]: B (a compound having 3 or more and less than 10 is denoted as B); HRAS/KRAS (ratio of KD value with respect to HRAS to KD value with respect to KRAS) [2]: B (a compound having 3 or more and less than 10 is denoted as B)
10 | CCO[C@@H]1C[C@H]2C(=O)NC3(CC(C)(C)C3)C(=O)N(C)[C@@H](C(CC)CC)C(=O)N(C)[C@H](C(=O)N(C)C)CC(=O)N(C)[C@@H](CC3CC3)C(=O)N[C@@H]([C@@H](C)CC)C(=O)N(C)CC(=O)N(C)[C@H]3C/C=C\CCN(C3=O)[C@@H](Cc3ccc(C)cc3)C(=O)N(C)CC(=O)N[C@@H](CCc3ccc(C(F)(F)F)c(OC)c3)C(=O)N2C1 [PP2166] | A (a compound having 10 or more and less than 20 is denoted as A) | A (a compound having 10 or more and less than 20 is denoted as A) | 0.29 |  | 
11 | CCC[C@H]1C(=O)N[C@@H](C2CCCC2)C(=O)N(C)CC(=O)N(C)[C@H]2C/C=C\CCN(C2=O)[C@@H](Cc2ccc(C(F)(F)F)cc2)C(=O)N(C)CC(=O)N[C@@H](CCc2ccc(C(F)(F)F)c(Cl)c2)C(=O)N2C[C@H](OCC)C[C@H]2C(=O)NC2(CC(C)(C)C2)C(=O)N(C)[C@@H](C2CCCC2)C(=O)N(C)[C@H](C(=O)N(C)C)CC(=O)N1C [PP2984] | A (a compound having 10 or more and less than 20 is denoted as A) | B (a compound having 3 or more and less than 10 is denoted as B) | 0.2 |  | 
12 | CCO[C@@H]1C[C@H]2C(=O)NC3(CCC3)C(=O)N(C)[C@@H](C3CCCC3)C(=O)N(C)[C@H](C(=O)N(C)C)CC(=O)N(C)[C@@H](CC3CCCC3)C(=O)N[C@@H]([C@@H](C)CC)C(=O)N(C)CC(=O)N(C)[C@H]3C/C=C\CCN(C3=O)[C@@H](Cc3ccc(C)cc3)C(=O)N(C)CC(=O)N[C@@H](CCc3ccc(Cl)c(Cl)c3)C(=O)N2C1 [PP1487] |  |  |  |  | NRAS/KRAS (ratio of KD value for NRAS to KD value for KRAS) ([1]; KD ratio class): A (a compound having 10 or more and less than 20 is denoted as A); HRAS/KRAS (ratio of KD value for HRAS to KD value for KRAS) ([2]; KD ratio class): A (a compound having 10 or more and less than 20 is denoted as A); Kd ([3]; SPR, Single Cycle Kinetics, 1:1 binding model): 0.34 nM
13 | CC[C@H](C)[C@@H]1NC(=O)[C@H](CC(C)C)N(C)C(=O)C[C@@H](C(=O)N2CCOCC2)N(C)C(=O)[C@H](C2CCCC2)N(C)C(=O)C2(CCCC2)NC(=O)[C@@H]2CC(=O)CN2C(=O)[C@H](CCc2cc(F)c(C(F)(F)F)c(F)c2)NC(=O)CN(C)C(=O)[C@H](Cc2ccc(C(F)(F)F)cc2)N2CCCCC[C@@H](C2=O)N(C)C(=O)CN(C)C1=O [PP0493] |  |  |  | 2 | NRAS/KRAS (ratio of KD value with respect to NRAS to KD value with respect to KRAS) [1]: B (a compound having 3 or more and less than 10 is denoted as B); HRAS/KRAS (ratio of KD value with respect to HRAS to KD value with respect to KRAS) [2]: B (a compound having 3 or more and less than 10 is denoted as B)

From US20240158446A1, “CYCLIC COMPOUND HAVING SELECTIVE INHIBITORY ACTION ON KRAS OVER HRAS AND NRAS” (CHUGAI SEIYAKU KABUSHIKI KAISHA, priority 2021, published 2024)
